What was measured:
[1] = tested on: Leishmania mexicana promastigotes; experiment: Promastigote assay, live/dead parasites by flow cytometry; format: cell-based; conditions: 48 h, read-out: L. mexicana promastigotes IC50
[2] = tested on: HT-29 human colon cancer cell line; experiment: Cytotoxicity assay; format: cell-based; conditions: HT-29 cells, two days' incubation, SRB; ED50 > 20 µM considered inactive
NF-κB (p65) = NF-κB (p65) (Homo sapiens, UniProt Q04206); experiment: Enzyme-based ELISA NF-κB; format: biochemical
Sequence of NF-κB (p65) (Q04206 whole entry): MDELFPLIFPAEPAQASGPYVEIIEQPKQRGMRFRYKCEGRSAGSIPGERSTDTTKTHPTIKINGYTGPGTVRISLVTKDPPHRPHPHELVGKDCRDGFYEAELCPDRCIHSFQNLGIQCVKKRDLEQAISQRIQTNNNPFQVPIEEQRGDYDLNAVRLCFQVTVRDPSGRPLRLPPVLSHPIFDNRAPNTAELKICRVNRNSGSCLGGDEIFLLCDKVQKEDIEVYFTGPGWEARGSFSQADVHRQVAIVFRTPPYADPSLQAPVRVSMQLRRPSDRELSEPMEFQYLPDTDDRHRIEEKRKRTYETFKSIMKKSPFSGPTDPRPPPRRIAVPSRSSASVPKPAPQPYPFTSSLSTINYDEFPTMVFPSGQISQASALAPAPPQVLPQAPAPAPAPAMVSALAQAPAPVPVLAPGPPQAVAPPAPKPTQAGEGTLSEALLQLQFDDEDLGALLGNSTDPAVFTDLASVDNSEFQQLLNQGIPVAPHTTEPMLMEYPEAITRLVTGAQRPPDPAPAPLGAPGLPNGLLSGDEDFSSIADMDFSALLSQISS
Sequence of NF-κB (p65) (P19838 1-433 partner limits assumed): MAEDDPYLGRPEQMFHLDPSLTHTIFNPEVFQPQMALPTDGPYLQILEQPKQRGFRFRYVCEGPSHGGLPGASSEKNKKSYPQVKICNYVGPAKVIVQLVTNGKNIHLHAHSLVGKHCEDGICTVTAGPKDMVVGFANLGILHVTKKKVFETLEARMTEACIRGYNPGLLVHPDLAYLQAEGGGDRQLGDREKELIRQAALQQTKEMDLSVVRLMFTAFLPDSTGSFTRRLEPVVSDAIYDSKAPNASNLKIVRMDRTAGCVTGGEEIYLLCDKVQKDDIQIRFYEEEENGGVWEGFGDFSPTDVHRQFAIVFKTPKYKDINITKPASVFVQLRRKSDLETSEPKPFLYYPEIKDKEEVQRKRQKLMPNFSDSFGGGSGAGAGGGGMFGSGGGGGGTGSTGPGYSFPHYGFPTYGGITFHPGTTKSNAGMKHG

C[C@@H]1[C@H](O)[C@@H](C)/C=C/C=C/C=C/C=C/C=C/C=C/C=C/[C@H](O[C@@H]2O[C@H](C)[C@@H](O)[C@H](N)[C@@H]2O)C[C@@H]2O[C@](O)(C[C@@H](O)C[C@@H](O)[C@H](O)CC[C@@H](O)C[C@@H](O)CC(=O)O[C@H]1C)C[C@H](O)[C@H]2C(=O)O [Amphotericin B, reference compound]
IC50 [1]: 0.09 µM

CC(=O)C1=COC[C@@H]2[C@H]1C[C@H]1c3c(c4ccccc4n3C)C[C@@H]2N1C [Compound 4, alstonerine]
HT-29 ED50 [2]: >20 µM
IC50 (NF-κB (p65)): > 20 µM
IC50 [1]: 145 µM

villalstonine N(4)-oxide [Compound 8]
HT-29 ED50 [2]: >20 µM

CC1=C(C=O)[C@@H]2C[C@H]3c4c(c5ccccc5n4C)C[C@@H]([C@@H]2CO1)N3C [Compound 3, alstonerinal]
HT-29 ED50 [2]: 8.6 µM
IC50 (NF-κB (p65)): > 20 µM
IC50 [1]: 105 µM

COc1ccc([C@@]23Oc4cc(OC)cc(OC)c4[C@]2(O)[C@H](O)[C@H](C(=O)N(C)C)[C@H]3c2ccccc2)cc1 [Rocaglamide, reference compound]
HT-29 ED50 [2]: 0.005 µM

N(4)-methyltalpinine [Compound 1]
HT-29 ED50 [2]: >20 µM

C[C@@H]1OC[C@@H]2[C@@H](C[C@H]3c4c(c5ccccc5n4C)C[C@@H]2N3C)[C@H]1CO [Compound 5, macrocarpine B]
IC50 (NF-κB (p65)): > 20 µM
IC50 [1]: > 200 µM

CC(=O)O[C@H]1C(=O)[C@@]2(C)[C@H]([C@H](OC(=O)c3ccccc3)[C@]3(O)C[C@H](OC(=O)[C@H](O)[C@@H](NC(=O)c4ccccc4)c4ccccc4)C(C)=C1C3(C)C)[C@]1(OC(C)=O)CO[C@@H]1C[C@@H]2O [Paclitaxel, reference compound]
HT-29 ED50 [2]: 0.006 µM

C/C=C1/C[N+]2(C)CC[C@@]34C[C@H]5[C@@H]6C[C@H]7c8c(c9ccccc9n8C)C[C@@H]([C@@H]6CO[C@@]5(C)O[C@@]35[C@@H]2C[C@@H]1[C@@H](C(=O)OC)N5c1ccccc14)N7C.[Cl-] (stereo partly drawn) [Compound 10, villalstonidine E]
HT-29 ED50 [2]: 6.5 µM

21-deoxy-N(4)-methyl-21-oxo-N(4),21-secotalpinine [Compound 2]
HT-29 ED50 [2]: >20 µM

C/C=C1\CN2CCC34CC5C6CC7c8c(c9ccccc9n8C)CC(C6COC5(C)OC35C2CC1C(C(=O)OC)N5c1ccccc14)N7C (stereo not drawn) [Compound 7, villalstonine]
HT-29 ED50 [2]: 8.0 µM

C/C=C1/CN2[C@H]3C[C@@H]1[C@@H](CO)[C@@H]2Cc1c3n(C)c2ccccc12 [Compound 6, affinisine]
HT-29 ED50 [2]: >20 µM

villalstonidine D [Compound 9]
HT-29 ED50 [2]: >20 µM
